Measurements: patent US11434246B2, “EP4 antagonists” (Eisai R&D Management Co., Ltd., priority 2015, dated 2022)

molecular target: EP4 (Homo sapiens, UniProt P35408); experiment: EP4 Antagonism by CRE-PLAP Reporter Assay (SE302 cells, PGE2-stimulated); assay type: cell-based; design: HEK293 cells express endogenous EP4; endogenous in cells; host or cells: SE302 (HEK293 clone with CRE-PLAP reporter); conditions: SE302 (HEK293) cells, 3 ng/mL PGE2, overnight; single or multiple assay average values
Sequence (P35408 whole entry): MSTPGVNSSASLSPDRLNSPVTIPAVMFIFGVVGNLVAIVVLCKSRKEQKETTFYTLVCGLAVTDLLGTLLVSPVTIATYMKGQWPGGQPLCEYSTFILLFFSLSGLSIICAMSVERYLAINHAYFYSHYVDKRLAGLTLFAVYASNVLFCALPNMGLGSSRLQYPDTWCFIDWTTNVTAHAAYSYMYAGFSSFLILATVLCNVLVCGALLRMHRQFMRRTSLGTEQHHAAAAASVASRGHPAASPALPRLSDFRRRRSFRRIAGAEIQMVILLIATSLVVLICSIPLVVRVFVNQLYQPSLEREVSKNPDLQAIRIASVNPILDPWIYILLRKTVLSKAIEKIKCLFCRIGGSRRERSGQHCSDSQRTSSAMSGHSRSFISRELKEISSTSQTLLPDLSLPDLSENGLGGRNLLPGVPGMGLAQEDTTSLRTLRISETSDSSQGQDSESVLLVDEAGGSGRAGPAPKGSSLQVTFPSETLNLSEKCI
From the text: PGE2 and [^3H]-labelled PGE2 were purchased from Cayman Chemical (Ann Arbor, Mich.) and Perkin Elmer (Waltham, Mass.), respectively. Mouse breast 4T1 cells (CRL-2539) were obtained from American Tissue Culture Collection. SE302 cell line is a clone of the HEK293 cells containing cAMP response element (CRE) promoter that when activated drives secretion of placental-like alkaline phosphatase (PLAP). HEK293 cells express endogenous EP4 and show induction of PLAP in response to PGE2 and EP4 agonists, but not EP1, 2 or 3 agonists (Chen Q, Muramoto K, Masaaki N, Ding Y, Yang H, Mackey M, Li W, Inoue Y, Ackermann K, Shrota H, Matsumoto I, Spyvee M, Schiller S, Sumida T, Gusovsky F, and Lamphier M. A novel antagonist of the prostaglandin E2 EP4 receptor inhibits Th1 differentiation and Th17 expansion and is orally active in arthritis models. British J Pharmacol, 2010, 160: 292-310). BalB/C female mice at 7-8 week age were purchased from Jackson Laboratory (Bar Harbor, Me.). Mice were maintained under specific pathogen-free conditions.
EP4 Antagonism by CRE-PLAP Reporter Assay: SE302 cells were maintained in DMEM/F12 (50:50) (MediaTech) supplemented with 10% FBS (Tissue Culture Biologicals) plus penicillin/streptomycin. When used for assays, cells were plated in a 96-well plate at 2×10^4 cells/100 μL/well in serum-free assay medium (DMEM/F12 supplemented with 0.1% BSA plus penicillin/streptomycin) and incubated for 4-6 h. Cells were then stimulated with 3 ng/mL of PGE2 in the presence or absence of various concentrations of test compound overnight, and PLAP activity was measured by mixing 15 μL of culture supernatants with 75 μL of Lumi-phos (Lumigen, Inc.) and 60 μL of assay buffer containing 8 mmol/L MgSO4 in 0.1 mol/L carbonate-bicarbonate buffer pH11 in a new 96-well black plate and incubated for 2 h at room temperature. The intensity of luminescence, which reflected the PLAP activity in the supernatant, was quantified with an Envision 2101 Multilabel Reader. Values obtained from DMSO treated samples in the presence of PGE2 were defined as 100% of control, whereas values obtained from DMSO treated samples in the absence of PGE2 were defined as 0% of control. % of control for compound treated samples was calculated as follows: (actual reading−0% of control)/(100% of control−0% of control)×100. IC50 value for each individual experiment was calculated using GraphPad Prism 6.02 (Lake Forest, Calif.) with % of control values.
Compounds of the present invention were assayed according to the methods as described above, and IC50 values, which may be single assay values or multiple assay average values, are summarized in Table 1. Compounds marked “ABS” show absolute stereochemistry.

Row | Compound | IC50 [nM]
1 | C[C@H](NC(=O)c1c(C(F)(F)F)nn2c1N(Cc1ccccc1C(F)(F)F)CCC2)c1ccc(C(=O)O)cc1 [Compound 46, (S)-4-(1-(2-(trifluoromethyl)-4-(2-(trifluoromethyl)benzyl)-4,5,6,7-tetrahydropyrazolo[1,5-a]pyrimidine-3-carboxamido)ethyl)benzoic Acid] | 100
2 | C[C@H](NC(=O)c1c(C(F)(F)F)nn2c1N(c1ccc(C(F)(F)F)cc1)CC2)c1ccc(C(=O)O)cc1 [Compound 47, (S)-4-(1-(6-(trifluoromethyl)-1-(4-(trifluoromethyl)phenyl)-2,3-dihydro-1H-imidazo[1,2-b]pyrazole-7-carboxamido)ethyl)benzoic Acid] | 48.9
3 | C[C@H](NC(=O)c1c(C(F)(F)F)nn2c1N(c1cccc(Cl)c1)CC2)c1ccc(C(=O)O)cc1 [Compound 49, (S)-4-(1-(1-(3-chlorophenyl)-6-(trifluoromethyl)-2,3-dihydro-1H-imidazo[1,2-b]pyrazole-7-carboxamido)ethyl)benzoic Acid] | 100
4 | C[C@H](NC(=O)c1c(C(F)(F)F)nn2c1N(c1ccc(Cl)cc1)CC2)c1ccc(C(=O)O)cc1 [Compound 50, (S)-4-(1-(1-(4-chlorophenyl)-6-(trifluoromethyl)-2,3-dihydro-1H-imidazo[1,2-b]pyrazole-7-carboxamido)ethyl)benzoic Acid] | 91.3
5 | C[C@H](NC(=O)c1c(C(F)(F)F)nn2c1N(c1ccc(C(F)(F)F)cc1)CCC2)c1ccc(C(=O)O)cc1 [Compound 51, (S)-4-(1-(2-(trifluoromethyl)-4-(4-(trifluoromethyl)phenyl)-4,5,6,7-tetrahydropyrazolo[1,5-a]pyrimidine-3-carboxamido)ethyl)benzoic Acid] | 100
6 | C[C@H](NC(=O)c1c(C(F)(F)F)nn2c1N(Cc1cccc(C(F)(F)F)c1)CC2)c1ccc(C(=O)NC#N)cc1 [Compound 52, (S)—N-(1-(4-(cyanocarbamoyl)phenyl)ethyl)-6-(trifluoromethyl)-1-(3-(trifluoromethyl)benzyl)-2,3-dihydro-1H-imidazo[1,2-b]pyrazole-7-carboxamide] | 0.07
7 | C[C@H](NC(=O)c1c(C(F)(F)F)nn2c1N(Cc1cccc(C(F)(F)F)c1)CC2)c1ccc(C(=O)NS(=O)(=O)c2ccc(F)c(F)c2)cc1 [Compound 53, (S)—N-(1-(4-(((3,4-difluorophenyl)sulfonyl)carbamoyl)phenyl)ethyl)-6-(trifluoromethyl)-1-(3-(trifluoromethyl)benzyl)-2,3-dihydro-1H-imidazo[1,2-b]pyrazole-7-carboxamide] | 3.91
8 | C[C@H](NC(=O)c1c(C(F)(F)F)nn2c1N(Cc1cccc(OC(F)(F)F)c1)CC2)c1ccc(C(=O)NS(=O)(=O)c2ccccc2)cc1 [Compound 54, (S)—N-(1-(4-((phenylsulfonyl)carbamoyl)phenyl)ethyl)-1-(3-(trifluoromethoxy)benzyl)-6-(trifluoromethyl)-2,3-dihydro-1H-imidazo[1,2-b]pyrazole-7-carboxamide] | 21.6
9 | C[C@H](NC(=O)c1c(C(F)(F)F)nn2c1N(Cc1cccc(C(F)(F)F)c1)CC2)c1ccc(C(=O)NS(C)(=O)=O)cc1 [Compound 55, (S)—N-(1-(4-((methylsulfonyl)carbamoyl)phenyl)ethyl)-6-(trifluoromethyl)-1-(3-(trifluoromethyl)benzyl)-2,3-dihydro-1H-imidazo[1,2-b]pyrazole-7-carboxamide] | 39.3
10 | C[C@H](NC(=O)c1c(C(F)(F)F)nn2c1N(Cc1cccc(C(F)(F)F)c1)CC2)c1ccc(C(=O)NS(=O)(=O)C2CC2)cc1 [Compound 56, (S)—N-(1-(4-((cyclopropylsulfonyl)carbamoyl)phenyl)ethyl)-6-(trifluoromethyl)-1-(3-(trifluoromethyl)benzyl)-2,3-dihydro-1H-imidazo[1,2-b]pyrazole-7-carboxamide] | 73
11 | C[C@H](NC(=O)c1c(C(F)(F)F)nn2c1N(Cc1ccc(C(F)(F)F)cc1)CC2)c1ccc(C2CC2)cc1 [Compound 57, (S)—N-(1-(4-cyclopropylphenyl)ethyl)-6-(trifluoromethyl)-1-(4-(trifluoromethyl)benzyl)-2,3-dihydro-1H-imidazo[1,2-b]pyrazole-7-carboxamide] | 310
12 | Cc1cc([C@H](C)NC(=O)c2c(C(F)(F)F)nn3c2N(Cc2ccc(C(F)(F)F)cc2)CC3)ccc1-c1nn[nH]n1 [Compound 58, (S)—N-(1-(3-methyl-4-(2H-tetrazol-5-yl)phenyl)ethyl)-6-(trifluoromethyl)-1-(4-(trifluoromethyl)benzyl)-2,3-dihydro-1H-imidazo[1,2-b]pyrazole-7-carboxamide] | 4.71
13 | CCc1nn2c(c1C(=O)N[C@@H](C)c1ccc(C(=O)O)cc1)N(Cc1cccc(C(F)(F)F)c1)CC2 [Compound 59, (S)-4-(1-(6-ethyl-1-(3-(trifluoromethyl)benzyl)-2,3-dihydro-1H-imidazo[1,2-b]pyrazole-7-carboxamido)ethyl)benzoic acid] | 0.68
14 | C[C@H](NC(=O)c1c(-c2ccccc2)nn2c1N(Cc1cccc(C(F)(F)F)c1)CC2)c1ccc(C(=O)O)cc1 [Compound 60, (S)-4-(1-(6-phenyl-1-(3-(trifluoromethyl)benzyl)-2,3-dihydro-1H-imidazo[1,2-b]pyrazole-7-carboxamido)ethyl)benzoic Acid] | 7.65

The next lines start with the values.

Row | IC50 [nM] | Compound
15 | 100 | C[C@H](NC(=O)c1c(C(F)(F)F)nn2c1N(Cc1ccccc1Cl)CCC2)c1ccc(C(=O)O)cc1 [Compound 61, (S)-4-(1-(4-(2-chlorobenzyl)-2-(trifluoromethyl)-4,5,6,7-tetrahydropyrazolo[1,5-a]pyrimidine-3-carboxamido)ethyl)benzoic Acid]
16 | 0.57 | CSc1cc(CN2CCn3nc(C(F)(F)F)c(C(=O)N[C@@H](C)c4ccc(C(=O)O)cc4)c32)cc(C(F)(F)F)c1 [Compound 62, (S)-4-(1-(1-(3-(methylthio)-5-(trifluoromethyl)benzyl)-6-(trifluoromethyl)-2,3-dihydro-1H-imidazo[1,2-b]pyrazole-7-carboxamido)ethyl)benzoic Acid]
17 | 1.3 | C[C@H](NC(=O)c1c(C(F)(F)F)nn2c1N(Cc1ccc(Cl)c(C(F)(F)F)c1)CC2)c1ccc(C(=O)O)cc1 [Compound 63, (S)-4-(1-(1-(4-chloro-3-(trifluoromethyl)benzyl)-6-(trifluoromethyl)-2,3-dihydro-1H-imidazo[1,2-b]pyrazole-7-carboxamido)ethyl)benzoic acid]
18 | 0.82 | C[C@H](NC(=O)c1c(C(F)(F)F)nn2c1N(Cc1cccc(CO)c1)CC2)c1ccc(C(=O)O)cc1 [Compound 64, (S)-4-(1-(1-(3-(hydroxymethyl)benzyl)-6-(trifluoromethyl)-2,3-dihydro-1H-imidazo[1,2-b]pyrazole-7-carboxamido)ethyl)benzoic acid]
19 | 0.93 | C[C@H](NC(=O)c1c(C(F)(F)F)nn2c1N(Cc1cccc(CCl)c1)CC2)c1ccc(C(=O)O)cc1 [Compound 65, (S)-4-(1-(1-(3-(chloromethyl)benzyl)-6-(trifluoromethyl)-2,3-dihydro-1H-imidazo[1,2-b]pyrazole-7-carboxamido)ethyl)benzoic acid]
20 | 35.8 | C[C@H](NC(=O)c1c(C(F)(F)F)nn2c1N(Cc1cccc(CN3CCn4nc(C(F)(F)F)c(C(=O)N[C@@H](C)c5ccc(C(=O)O)cc5)c43)c1)CC2)c1ccc(C(=O)O)cc1 [Compound 66, 4,4′-((1S,1′S)-((1,1′-(1,3-phenylenebis(methylene))bis(6-(trifluoromethyl)-2,3-dihydro-1H-imidazo[1,2-b]pyrazole-1,7-diyl-7-carbonyl))bis(azanediyl))bis(ethane-1,1-diyl))dibenzoic Acid]
21 | 1.2 | C[C@H](NC(=O)c1c(C(F)(F)F)nn2c1N(Cc1cccc(CF)c1)CC2)c1ccc(C(=O)O)cc1 [Compound 67, (S)-4-(1-(1-(3-(fluoromethyl)benzyl)-6-(trifluoromethyl)-2,3-dihydro-1H-imidazo[1,2-b]pyrazole-7-carboxamido)ethyl)benzoic Acid]
